From the kinase profiling compilation of Christmann-Franck et al. (2016)

Key:
Assay in all cases: KINOMEscan competition binding
Conditions in all cases: compound 10.0 µM
[1] = molecular target: ACVR2A (human) (UniProt P27037)
[2] = molecular target: ADCK4 (human) (UniProt Q96D53)
[3] = molecular target: ALK (human) (UniProt Q9UM73)
[4] = molecular target: AXL (human) (UniProt P30530)
[5] = molecular target: BMPR1B (human) (UniProt O00238)
[6] = molecular target: CAMK2A (human) (UniProt Q9UQM7)
[7] = molecular target: CAMK2B (human) (UniProt Q13554)
Chain of CAMK2B (human) (Q13554 whole entry, looked up): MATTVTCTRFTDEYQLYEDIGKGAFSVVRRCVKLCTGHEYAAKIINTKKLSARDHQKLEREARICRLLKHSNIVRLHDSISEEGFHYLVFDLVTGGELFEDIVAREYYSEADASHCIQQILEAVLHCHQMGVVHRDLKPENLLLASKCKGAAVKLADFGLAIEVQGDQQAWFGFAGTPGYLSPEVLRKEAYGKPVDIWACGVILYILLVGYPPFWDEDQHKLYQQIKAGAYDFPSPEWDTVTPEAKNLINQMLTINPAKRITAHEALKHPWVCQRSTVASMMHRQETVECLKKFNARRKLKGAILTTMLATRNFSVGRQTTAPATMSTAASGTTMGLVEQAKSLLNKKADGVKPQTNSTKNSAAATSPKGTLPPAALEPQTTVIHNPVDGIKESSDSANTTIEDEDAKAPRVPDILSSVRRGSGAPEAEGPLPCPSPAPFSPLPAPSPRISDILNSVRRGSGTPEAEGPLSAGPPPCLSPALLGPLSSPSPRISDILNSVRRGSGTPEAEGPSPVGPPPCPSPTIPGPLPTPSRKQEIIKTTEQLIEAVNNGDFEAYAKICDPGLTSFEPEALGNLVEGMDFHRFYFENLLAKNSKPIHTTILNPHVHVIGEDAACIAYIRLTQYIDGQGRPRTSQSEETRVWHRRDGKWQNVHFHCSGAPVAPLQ

[8] = molecular target: CDC42BPG (human) (UniProt Q6DT37)
Chain of CDC42BPG (human) (Q6DT37 whole entry, looked up): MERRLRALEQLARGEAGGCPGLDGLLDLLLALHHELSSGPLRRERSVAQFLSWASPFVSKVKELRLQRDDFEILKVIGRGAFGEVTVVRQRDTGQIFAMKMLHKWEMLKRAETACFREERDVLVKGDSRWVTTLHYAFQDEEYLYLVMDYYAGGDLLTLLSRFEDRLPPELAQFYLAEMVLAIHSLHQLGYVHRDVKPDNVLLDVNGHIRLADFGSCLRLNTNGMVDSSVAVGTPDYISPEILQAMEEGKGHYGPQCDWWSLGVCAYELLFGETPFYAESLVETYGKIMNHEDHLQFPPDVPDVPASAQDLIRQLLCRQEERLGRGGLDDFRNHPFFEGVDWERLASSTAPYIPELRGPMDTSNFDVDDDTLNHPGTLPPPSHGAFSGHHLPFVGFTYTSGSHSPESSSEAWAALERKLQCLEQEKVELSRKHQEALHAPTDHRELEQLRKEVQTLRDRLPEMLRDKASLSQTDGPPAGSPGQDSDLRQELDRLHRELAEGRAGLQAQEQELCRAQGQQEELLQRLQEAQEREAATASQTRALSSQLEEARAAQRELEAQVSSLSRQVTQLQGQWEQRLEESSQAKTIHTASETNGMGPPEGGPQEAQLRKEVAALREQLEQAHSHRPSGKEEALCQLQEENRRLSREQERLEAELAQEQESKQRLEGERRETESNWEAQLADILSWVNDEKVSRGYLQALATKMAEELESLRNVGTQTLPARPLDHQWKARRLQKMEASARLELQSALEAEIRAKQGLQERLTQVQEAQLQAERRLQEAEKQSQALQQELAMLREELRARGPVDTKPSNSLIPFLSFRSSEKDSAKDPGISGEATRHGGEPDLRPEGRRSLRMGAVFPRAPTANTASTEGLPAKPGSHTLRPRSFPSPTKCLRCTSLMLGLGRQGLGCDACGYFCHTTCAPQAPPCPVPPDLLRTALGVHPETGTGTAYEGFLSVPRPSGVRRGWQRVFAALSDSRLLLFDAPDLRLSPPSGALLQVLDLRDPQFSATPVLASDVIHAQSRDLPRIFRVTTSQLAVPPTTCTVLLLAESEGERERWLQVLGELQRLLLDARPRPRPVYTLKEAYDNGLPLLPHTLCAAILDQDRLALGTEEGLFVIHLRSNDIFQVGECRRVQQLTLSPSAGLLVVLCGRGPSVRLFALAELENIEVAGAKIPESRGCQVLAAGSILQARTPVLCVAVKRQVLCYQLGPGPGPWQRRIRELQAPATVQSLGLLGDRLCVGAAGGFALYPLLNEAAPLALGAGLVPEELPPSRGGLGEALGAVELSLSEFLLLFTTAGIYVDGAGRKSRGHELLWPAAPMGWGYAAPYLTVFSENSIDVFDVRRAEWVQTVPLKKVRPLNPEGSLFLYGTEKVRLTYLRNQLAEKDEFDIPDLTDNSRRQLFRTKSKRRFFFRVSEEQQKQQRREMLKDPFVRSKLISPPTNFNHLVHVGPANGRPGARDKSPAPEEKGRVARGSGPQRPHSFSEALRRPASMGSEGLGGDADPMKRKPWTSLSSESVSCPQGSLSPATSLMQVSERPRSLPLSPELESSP

[9] = molecular target: CDK19 (human) (UniProt Q9BWU1)
[10] = molecular target: CDK7 (human) (UniProt P50613)
[11] = molecular target: CHEK2 (human) (UniProt O96017)
[12] = molecular target: CSNK2A2 (human) (UniProt P19784)
[13] = molecular target: DCLK1 (human) (UniProt O15075)
[14] = molecular target: EIF2AK1 (human) (UniProt Q9BQI3)
[15] = molecular target: EPHA1 (human) (UniProt P21709)
[16] = molecular target: EPHA2 (human) (UniProt P29317)
[17] = molecular target: EPHA5 (human) (UniProt P54756)
[18] = molecular target: HIPK3 (human) (UniProt Q9H422)
Chain of HIPK3 (human) (Q9H422 whole entry, looked up): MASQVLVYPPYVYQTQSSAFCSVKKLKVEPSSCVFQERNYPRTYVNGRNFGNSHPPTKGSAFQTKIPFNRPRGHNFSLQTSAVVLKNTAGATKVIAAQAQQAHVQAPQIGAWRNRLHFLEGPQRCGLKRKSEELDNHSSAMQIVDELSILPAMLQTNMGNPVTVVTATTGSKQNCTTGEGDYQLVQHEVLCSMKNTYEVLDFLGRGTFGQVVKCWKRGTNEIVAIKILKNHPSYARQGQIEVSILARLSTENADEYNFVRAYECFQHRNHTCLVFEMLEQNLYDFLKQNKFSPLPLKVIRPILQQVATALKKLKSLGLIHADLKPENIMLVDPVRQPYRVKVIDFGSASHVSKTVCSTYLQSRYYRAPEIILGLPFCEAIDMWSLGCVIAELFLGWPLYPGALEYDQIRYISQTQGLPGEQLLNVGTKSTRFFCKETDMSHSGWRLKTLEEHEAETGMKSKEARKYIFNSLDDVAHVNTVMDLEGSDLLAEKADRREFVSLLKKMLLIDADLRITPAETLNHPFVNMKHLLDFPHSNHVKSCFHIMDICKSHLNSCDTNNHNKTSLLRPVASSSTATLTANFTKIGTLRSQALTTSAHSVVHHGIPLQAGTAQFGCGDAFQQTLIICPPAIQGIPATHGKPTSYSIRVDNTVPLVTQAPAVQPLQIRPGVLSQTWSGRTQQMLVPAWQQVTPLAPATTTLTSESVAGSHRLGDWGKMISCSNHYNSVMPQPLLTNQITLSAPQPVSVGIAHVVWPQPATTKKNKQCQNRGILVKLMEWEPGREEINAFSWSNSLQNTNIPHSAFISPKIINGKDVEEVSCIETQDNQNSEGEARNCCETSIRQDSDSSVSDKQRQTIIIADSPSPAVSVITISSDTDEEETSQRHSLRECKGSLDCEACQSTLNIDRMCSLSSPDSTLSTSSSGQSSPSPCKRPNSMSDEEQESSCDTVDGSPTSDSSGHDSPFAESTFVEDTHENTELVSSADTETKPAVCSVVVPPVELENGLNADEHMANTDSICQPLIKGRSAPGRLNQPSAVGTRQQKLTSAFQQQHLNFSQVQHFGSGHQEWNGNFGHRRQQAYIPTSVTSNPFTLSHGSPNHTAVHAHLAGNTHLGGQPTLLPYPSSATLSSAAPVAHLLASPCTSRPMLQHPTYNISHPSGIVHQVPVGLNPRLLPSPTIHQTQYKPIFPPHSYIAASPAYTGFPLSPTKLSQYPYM

[19] = molecular target: KDR (human) (UniProt P35968)
[20] = system: KIT (human), P10721 [A829P]
[21] = molecular target: MAP2K6 (human) (UniProt P52564)
[22] = molecular target: MAP4K5 (human) (UniProt Q9Y4K4)
[23] = molecular target: MAPK11 (human) (UniProt Q15759)
[24] = molecular target: MAPK4 (human) (UniProt P31152)
Chain of MAPK4 (human) (P31152 whole entry, looked up): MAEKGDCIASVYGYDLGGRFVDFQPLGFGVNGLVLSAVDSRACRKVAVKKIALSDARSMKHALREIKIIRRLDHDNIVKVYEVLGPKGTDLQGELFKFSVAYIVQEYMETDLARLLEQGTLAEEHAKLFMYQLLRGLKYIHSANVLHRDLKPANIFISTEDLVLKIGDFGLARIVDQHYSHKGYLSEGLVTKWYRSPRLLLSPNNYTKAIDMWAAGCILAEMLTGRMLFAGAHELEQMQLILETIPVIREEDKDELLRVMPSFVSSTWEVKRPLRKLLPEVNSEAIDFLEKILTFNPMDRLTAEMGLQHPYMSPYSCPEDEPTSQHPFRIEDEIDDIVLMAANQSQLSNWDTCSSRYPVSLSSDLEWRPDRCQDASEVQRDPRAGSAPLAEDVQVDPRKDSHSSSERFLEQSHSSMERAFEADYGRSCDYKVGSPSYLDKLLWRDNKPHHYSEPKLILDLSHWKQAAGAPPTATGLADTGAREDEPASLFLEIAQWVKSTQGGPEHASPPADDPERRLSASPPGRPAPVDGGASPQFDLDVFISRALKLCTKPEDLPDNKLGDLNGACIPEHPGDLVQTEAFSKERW

[25] = molecular target: MAPK8 (human) (UniProt P45983)
Chain of MAPK8 (human) (P45983 whole entry, looked up): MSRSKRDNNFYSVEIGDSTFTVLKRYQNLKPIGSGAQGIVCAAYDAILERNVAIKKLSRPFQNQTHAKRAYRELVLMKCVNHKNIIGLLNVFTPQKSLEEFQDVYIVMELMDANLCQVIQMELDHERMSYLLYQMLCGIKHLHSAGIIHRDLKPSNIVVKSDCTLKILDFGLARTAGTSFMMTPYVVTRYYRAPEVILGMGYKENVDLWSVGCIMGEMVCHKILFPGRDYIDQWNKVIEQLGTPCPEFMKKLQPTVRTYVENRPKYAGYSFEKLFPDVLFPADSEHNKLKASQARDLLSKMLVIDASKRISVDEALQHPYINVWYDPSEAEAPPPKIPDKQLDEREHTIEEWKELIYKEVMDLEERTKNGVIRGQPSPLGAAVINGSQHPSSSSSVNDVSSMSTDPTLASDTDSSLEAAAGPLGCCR

[26] = molecular target: PIM1 (human) (UniProt P11309)
[27] = molecular target: PRKACA (human) (UniProt P17612)
[28] = molecular target: PTK2B (human) (UniProt Q14289)
[29] = molecular target: RAF1 (human) (UniProt P04049)
Chain of RAF1 (human) (P04049 whole entry, looked up): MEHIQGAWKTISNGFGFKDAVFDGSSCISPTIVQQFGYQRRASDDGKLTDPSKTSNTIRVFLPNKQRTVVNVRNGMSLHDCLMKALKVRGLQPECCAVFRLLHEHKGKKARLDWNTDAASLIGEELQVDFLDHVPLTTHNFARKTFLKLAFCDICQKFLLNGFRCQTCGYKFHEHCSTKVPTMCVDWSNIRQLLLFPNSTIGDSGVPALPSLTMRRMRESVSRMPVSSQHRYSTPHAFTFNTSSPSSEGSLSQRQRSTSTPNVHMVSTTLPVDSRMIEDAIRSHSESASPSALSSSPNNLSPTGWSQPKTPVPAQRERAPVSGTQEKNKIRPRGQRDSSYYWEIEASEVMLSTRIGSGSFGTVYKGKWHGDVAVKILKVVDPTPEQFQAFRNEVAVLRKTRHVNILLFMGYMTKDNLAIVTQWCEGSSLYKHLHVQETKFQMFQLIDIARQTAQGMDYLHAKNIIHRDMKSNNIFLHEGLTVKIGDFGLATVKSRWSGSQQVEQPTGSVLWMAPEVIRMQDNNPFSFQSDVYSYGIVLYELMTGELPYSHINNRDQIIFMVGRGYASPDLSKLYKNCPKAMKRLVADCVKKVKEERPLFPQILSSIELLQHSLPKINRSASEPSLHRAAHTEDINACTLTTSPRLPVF

[30] = molecular target: ROCK1 (human) (UniProt Q13464)
[31] = molecular target: RPS6KA2 KD1 (human) (UniProt Q15349)
[32] = molecular target: SRMS (human) (UniProt Q9H3Y6)
[33] = molecular target: SRPK2 (human) (UniProt P78362)
[34] = molecular target: STK3 (human) (UniProt Q13188)
[35] = molecular target: SYK (human) (UniProt P43405)
[36] = molecular target: TLK1 (human) (UniProt Q9UKI8)
[37] = molecular target: ULK1 (human) (UniProt O75385)
[38] = molecular target: VRK2 (human) (UniProt Q86Y07)
[39] = molecular target: WEE1 (human) (UniProt P30291)
[40] = molecular target: YES1 (human) (UniProt P07947)

SMILES	kinase still bound, per cent of control [1] [%]	kinase still bound, per cent of control [2] [%]	kinase still bound, per cent of control [3] [%]	kinase still bound, per cent of control [4] [%]	kinase still bound, per cent of control [5] [%]	kinase still bound, per cent of control [6] [%]	kinase still bound, per cent of control [7] [%]	kinase still bound, per cent of control [8] [%]	kinase still bound, per cent of control [9] [%]	kinase still bound, per cent of control [10] [%]	kinase still bound, per cent of control [11] [%]	kinase still bound, per cent of control [12] [%]	kinase still bound, per cent of control [13] [%]	kinase still bound, per cent of control [14] [%]	kinase still bound, per cent of control [15] [%]	kinase still bound, per cent of control [16] [%]	kinase still bound, per cent of control [17] [%]	kinase still bound, per cent of control [18] [%]	kinase still bound, per cent of control [19] [%]	kinase still bound, per cent of control [20] [%]	also measured
CCN1CCN(Cc2ccc(NC(=O)c3ccc(C)c(/C=C/c4cnc5[nH]ccc5c4OC)c3)cc2C(F)(F)F)CC1	100	100	51	4.6	14	100	100	16	4.2	41	66	95	93	78	2	1.7	3.6	44	2.6	64	kinase still bound, per cent of control [21]: 79%; kinase still bound, per cent of control [22]: 3.4%; kinase still bound, per cent of control [23]: 0%; kinase still bound, per cent of control [24]: 100%; kinase still bound, per cent of control [25]: 19%; kinase still bound, per cent of control [26]: 100%; kinase still bound, per cent of control [27]: 100%; kinase still bound, per cent of control [28]: 0.75%; kinase still bound, per cent of control [29]: 0.9%; kinase still bound, per cent of control [30]: 43%; kinase still bound, per cent of control [31]: 2.7%; kinase still bound, per cent of control [32]: 0.7%; kinase still bound, per cent of control [33]: 28%; kinase still bound, per cent of control [34]: 5.2%; kinase still bound, per cent of control [35]: 7.2%; kinase still bound, per cent of control [36]: 100%; kinase still bound, per cent of control [37]: 8.5%; kinase still bound, per cent of control [38]: 92%; kinase still bound, per cent of control [39]: 100%; kinase still bound, per cent of control [40]: 0.65%
COc1cc2ncnc(Nc3cccc(Cl)c3)c2cc1OC	92	28	25	19	62	62	95	56	93	26	6.7	16	54	65	43	62	55	54	31	27	kinase still bound, per cent of control [21]: 95%; kinase still bound, per cent of control [22]: 26%; kinase still bound, per cent of control [23]: 57%; kinase still bound, per cent of control [24]: 16%; kinase still bound, per cent of control [25]: 38%; kinase still bound, per cent of control [26]: 49%; kinase still bound, per cent of control [27]: 94%; kinase still bound, per cent of control [28]: 86%; kinase still bound, per cent of control [29]: 84%; kinase still bound, per cent of control [30]: 41%; kinase still bound, per cent of control [31]: 85%; kinase still bound, per cent of control [32]: 60%; kinase still bound, per cent of control [33]: 62%; kinase still bound, per cent of control [34]: 91%; kinase still bound, per cent of control [35]: 54%; kinase still bound, per cent of control [36]: 87%; kinase still bound, per cent of control [37]: 75%; kinase still bound, per cent of control [38]: 35%; kinase still bound, per cent of control [39]: 93%; kinase still bound, per cent of control [40]: 38%
